This note sets out measurements from patent US11814652B2, “Pluripotent stem cell differentiation-promoting agent” (Oriental Yeast Co., Ltd., priority 2018, dated 2023).

Assay [1] relates to iPS cells 201B7 strain. Put plainly: Flow cytometry of Brachyury/CD56 mesodermal markers, differentiation-induction in medium with β-NMN (Example 3). Format: cell-based, human. On the procedure: The effects of β-NMN on the mesodermal differentiation-induction of iPS cells were examined. The 201B7 strain was used as the iPS cells. The iPS cells were seeded in a 24-well plate coated with Matrigel (manufactured by Corning Incorporated) according to the manufacturer's protocol at 1×10^5 cells/well. The cells in the 24-well plate were cultured in a culture medium for iPS cells adjusted to have a final concentration of Rock inhibitor of 10 μM for 1 day. From the 1st day after seeding, the culture medium was replaced with a culture medium prepared by adjusting a mesoderm differentiation-inducing culture medium of “STEMdiff Trilineage Differentiation kit” (manufactured by STEMCELL Technologies) to have a final concentration of β-NMN of 0, 0.1, 0.25, or 1 mM for 1 day. […] Then, the cells were stained with a fluorescence-labeled anti-Brachyury antibody (manufactured by Merck, clone 3E4.2) and a fluorescence-labeled anti-CD56 antibody (manufactured by Biolegend, clone HCD56). After washing the stained cells, a flow cytometer “FACS caliber” (manufactured by Becton, Dickinson and Company) was used to analyze the fluorescence intensity of the anti-Brachyury antibody and the fluorescence intensity of the anti-CD56 antibody in each sample. […]

In assay [2] the test system is iPS cells 253G1 strain. Put plainly: Flow cytometry of Sox17/CXCR4 endodermal markers, differentiation-induction in medium with β-NMN (Example 4). The assay is classed as cell-based. To be noted: endodermal differentiation-inducing medium with β-NMN 0.1, 0.25 or 1 mM; 5th or 7th day; versus absence of β-NMN. Here is the method: The effects of β-NMN on the induction of endodermal differentiation of iPS cells were examined. As the iPS cells, the 253G1 strain was used. The iPS cells were seeded in a 24-well plate coated with Matrigel (manufactured by Corning Incorporated) according to the manufacturer's protocol at 3×10^5 cells/well. The cells in the 24-well plate were cultured in a culture medium for iPS cells adjusted to have a final concentration of Rock inhibitor of 10 μM for 1 day. From the 1st day after seeding, the culture medium was replaced with a culture medium prepared by adjusting an endoderm differentiation-inducing culture medium of “STEMdiff Trilineage Differentiation kit” (manufactured by STEMCELL Technologies) to have a final concentration of β-NMN of 0, 0.1, 0.25, or 1 mM for 1 day. […] Then, the cells were stained with a fluorescence-labeled anti-Sox17 antibody (manufactured by Becton, Dickinson and Company, clone P7-969) and a fluorescence-labeled anti-CXCR4 antibody (manufactured by Biolegend, clone 12G5). After washing the stained cells, a flow cytometer “FACS caliber” (manufactured by Becton, Dickinson and Company) was used to analyze the fluorescence intensity of the anti-Sox17 antibody and the fluorescence intensity of the anti-CXCR4 antibody in each sample. […]

The subject of assay [3] is iPS cells 253G1 strain. Put plainly: Cell number in endodermal differentiation-induction after undifferentiated culture with β-NMN (Example 5). Particulars: β-NMN 0.25 or 1 mM in culture medium for iPS cells before endodermal differentiation-induction; 7th day after seeding; versus no β-NMN. Format: cell-based. On the procedure: The effects of culturing in the presence of β-NMN before induction of differentiation on the endodermal differentiation-induction of iPS cells was examined. As the iPS cells, the 253G1 strain was used. iPS cells seeded on a culture dish coated with Matrigel (manufactured by Corning Incorporated) according to the manufacturer's protocol were cultured in a culture medium prepared by adjusting a culture medium for iPS cells to have a final concentration of β-NMN 0, 0.25 or 1 mM, and a final concentration of Rock inhibitor of 10 μM for 1 day. From the 1st day after seeding, the culture medium was replaced every day with a culture medium obtained by removing the Rock inhibitor from the culture medium at the time of seeding. When the confluent reached 70 to 80%, the iPS cells were detached from the culture dish and collected. The collected iPS cells were seeded at 3×10^5 cells/well in a 24-well plate coated with Matrigel (manufactured by Corning Incorporated) according to the manufacturer's protocol. The cells in the 24-well plate were cultured for 1 day in a culture medium prepared by removing β-NMN from the culture medium when culturing in the culture dish and adjusting to have a final concentration of Rock inhibitor of 10 μM. […] Cells on the 7th day after seeding were sampled and the numbers of cells were counted.

As to `NC(=O)c1ccc[n+]([C@@H]2O[C@H](COP(=O)([O-])O)[C@@H](O)[C@H]2O)c1` [β-NMN, β-nicotinamide mononucleotide], the “ratio of Brachyury-positive CD56-positive cells” value in assay [1] (mesodermal differentiation-inducing medium with β-NMN 0.1, 0.25 or 1 mM, 5th or 7th day, versus absence of β-NMN) is recorded as “no clear difference”; in assay [1] (β-NMN added at 1 mM, versus culturing without β-NMN), “obviously lower”. Further, in assay [2], the “ratio of Sox17-positive CXCR4-positive cells” value is “no clear difference”. For the same compound, in assay [3], the cell number entry was “no clear difference”.
